“And” between values parts separate entries of the source, which are not always exact repeats. Equal values may be shown once.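 How tested: cells in 96-well plates exposed to compound for 48 hours at five concentrations. The concentration for 50% growth inhibition is given as GI50. At the TGI there is no net growth.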
test system: M14 melanoma; assay: inhibition of tumour cell growth, NCI panel, 48 h

Row | Structure (SMILES) | TGI [µM] | GI50 [µM]
1 | CN(C)c1ncnc2c1ncn2CCn1cnc2c(N(C)C)ncnc21 | > 100 | –
2 | O=C(O)c1ccc(C(=O)O)c2c(C(=O)O)ccc(C(=O)O)c12 | > 100 | –
3 | CSc1nc(NC2OC(COC(C)=O)C(OC(C)=O)C(OC(C)=O)C2OC(C)=O)c(N=CC=Nc2c(NC3OC(COC(C)=O)C(OC(C)=O)C(OC(C)=O)C3OC(C)=O)nc(SC)n(C)c2=O)c(=O)n1C (centres undefined) | > 50 | > 50
4 | O=S(=O)(Nc1ccc(Cl)cc1Cl)c1ccc(-c2cnc(C3CC3)o2)cc1 | > 88.2 | 0.473
5 | CCc1ccc(/C=C/c2ccc(O)c3ncccc23)[n+](C)c1 | > 100 | –
6 | S=c1[nH]c2c(Cl)c(Cl)c(Cl)c(Cl)c2[nH]1 | 54.3 | –
7 | O=C(/C=C/C=C/c1ccccc1)c1ccccc1 | 33.6 | –
8 | Cc1ccc(Nc2oc(-c3ccccc3)nc2[P+](c2ccccc2)(c2ccccc2)c2ccccc2)cc1 | 2.11 | 0.728

test system: LOX IMVI melanoma; assay: inhibition of tumour cell growth, NCI panel, 48 h

Row | Structure (SMILES) | GI50 | TGI
9 | CN(C)C/C=C/C(=O)Nc1cc2c(Nc3ccc(F)c(Cl)c3)ncnc2cc1O[C@H]1CCOC1 | 1.02 µM and 1.38 µM | 3.62 µM and > 5.51 µM
10 | COc1cc(/C=C/C(=O)c2cccc(-n3cc(-c4ccc(Cl)cc4)[nH]c3=O)c2)ccc1O | 1.64 µM | 4.03 µM
11 | CCN(Cc1ccc(F)cc1)c1ccc(CO)c(Br)c1 | 11.6 µM | 26.1 µM
12 | Cc1ccc2c(C3C(C#N)=C(N)Oc4cc5ccccc5cc43)cc(=O)oc2c1 (centres undefined) | 3.17 µM | > 100 µM
13 | COC(=O)c1cc2c(s1)-c1nccc3c1c(nc1ccccc13)C2=O | 29 µM | > 100 µM
14 | Oc1ccc(Nc2c3ccccc3nc3occ(Cl)c23)cc1 | 6.68 µM | > 100 µM
15 | O=C(Nc1cc(C(F)(F)F)ccc1Cl)c1cccc(NC2=C(Cl)C(=O)N(Cc3ccccc3)C2=O)c1 | 5.65 µM | > 100 µM
16 | CC1(Br)Cc2ccccc2C1=O (centres undefined) | 0.533 µM | 2.41 µM
17 | CN(C)C(=S)Sc1ccc([N+](=O)[O-])cc1[N+](=O)[O-] | 1.53 µM | 3.63 µM
18 | CCOC(=O)/C=C/c1ccc(C#Cc2ccccc2)cc1 | > 100 µM | > 100 µM
19 | O=[P@@]1(c2ccccc2)O[C@H](COCc2ccccc2)[C@@H](OCc2ccccc2)[C@H](OCc2ccccc2)[C@H]1NCc1ccccc1 | 3.25 µM | 18.6 µM
20 | C[C@H]1CN[C@@H]2[C@@H](C)[C@H]3[C@@H](C[C@H]4[C@@H]5CC[C@H]6C[C@@H](N)CC[C@]6(C)[C@H]5CC[C@]34C)O[C@@]2(O)C1 | – | 4.08 µM
21 | COc1ccc(C(O)(CCC(C)C)C(CN2CCOCC2)c2ccc(Cl)cc2)cc1 (centres undefined) | 14.5 µM | 28 µM
22 | Cn1c(=O)c(Oc2ccc(F)cc2)cc2cnc(NC3CCOCC3)nc21 | > 25 µM | > 25 µM
23 | CC1(C)N=C(N)N=C(N)N1c1ccc(CCCCc2ccc(Cl)c(S(=O)(=O)F)c2)c(Cl)c1 | 0.13 µM | 17.5 µM
24 | Clc1nc(Cl)nc(Nc2cccc3ccccc23)n1 | 33.5 µM | > 100 µM
25 | Cc1cc2cc3c(=O)[nH]c(=O)[nH]c3nc2cc1C | – | > 100 µM
26 | CCc1c(Cl)c(C)cc(O)c1Cl | – | 51.7 µM
27 | CC(C)OC(=O)[C@H](C)NP(=O)(OC[C@H]1O[C@@H](n2ccc(=O)[nH]c2=O)[C@](C)(F)[C@@H]1O)Oc1ccccc1 (some centres undefined) | > 100 µM | > 100 µM
28 | C=COC(=O)N[C@H]1CCc2cc(OC)c(OC)c(OC)c2-c2ccc(SC)c(=O)cc21 | – | > 95.8 µM
29 | CN(C)c1ncnc2c1ncn2CCn1cnc2c(N(C)C)ncnc21 | – | > 100 µM
30 | O=C(O)c1ccc(C(=O)O)c2c(C(=O)O)ccc(C(=O)O)c12 | – | > 100 µM
31 | CSc1nc(NC2OC(COC(C)=O)C(OC(C)=O)C(OC(C)=O)C2OC(C)=O)c(N=CC=Nc2c(NC3OC(COC(C)=O)C(OC(C)=O)C(OC(C)=O)C3OC(C)=O)nc(SC)n(C)c2=O)c(=O)n1C (centres undefined) | > 50 µM | > 100 µM
32 | O=S(=O)(Nc1ccc(Cl)cc1Cl)c1ccc(-c2cnc(C3CC3)o2)cc1 | 0.542 µM | 34 µM
33 | CCc1ccc(/C=C/c2ccc(O)c3ncccc23)[n+](C)c1 | 35.8 µM | > 100 µM
34 | S=c1[nH]c2c(Cl)c(Cl)c(Cl)c(Cl)c2[nH]1 | – | 40.8 µM
35 | O=C(/C=C/C=C/c1ccccc1)c1ccccc1 | – | 29.3 µM
36 | Cc1ccc(Nc2oc(-c3ccccc3)nc2[P+](c2ccccc2)(c2ccccc2)c2ccccc2)cc1 | 0.833 µM | 2.11 µM

From PubChem BioAssay (NCI)
